From patent publication US9290486B1, “Compositions and methods for the treatment of epilepsy” (CELLIX BIO PRIVATE LIMITED, priority 2014, dated 2016)
Where two headings read alike, the source gives them in different places.

Test: Blood and cerebrospinal fluid pharmacokinetics after acute intraperitoneal administration in freely moving rats
Assay type: in vivo
Conditions: for serum and CSF concentrations versus dose: intraperitoneal, 20, 40 and 80 mg/kg; for Elimination half-life (t1/2)-CSF (Mean) / penetration of the blood brain barrier / Elimination half-life (t1/2)-Serum (Mean): intraperitoneal; for penetration of the blood brain barrier: appearance in serum and CSF; for Tmax: rat, ip, acute intraperitoneal, 20, 40 and 80 mg/kg
Procedure: Blood and Cerebrospinal Fluid Pharmacokinetics in Comparison of the Levetiracetam and Formula II (2-1) in Rats
The temporal pharmacokinetic interrelationship of levetiracetam and Formula II (2-1) in blood and cerebrospinal fluid (CSF) was studied after acute intraperitoneal administration of levetiracetam and Formula II (2-1), (20, 40 and 80 mg/kg), using an animal model that permits concurrent blood and CSF sampling in freely moving rats.

[1] = cerebrospinal fluid, read-out: Tmax mean range, CSF
[2] = serum, read-out: time to maximum concentration (Tmax) mean range, serum

Elimination half-life (t1/2)-CSF (Mean)	Elimination half-life (t1/2)-Serum (Mean) (serum)	Tmax [1]	Tmax [2]	Compound	serum and CSF concentrations versus dose	penetration of the blood brain barrier
4.8 to 5.6 h	2.3 to 3.4 h	2.14 to 2.83 h	0.47 to 0.89 h	CC[C@@H](C(=O)NC(=O)OC(C)OC(=O)CCCC[C@@H]1CCSS1)N1CCCC1=O (stereo partly drawn) [Formula II (2-1)]	rose essentially linearly and dose-dependently	ready penetration of the blood brain barrier
4.4 to 4.9 h	1.8 to 2.8 h	1.33 to 1.92 h	0.25 to 0.5 h	CC[C@@H](C(N)=O)N1CCCC1=O [levetiracetam]	rose essentially linearly and dose-dependently	ready penetration of the blood brain barrier
